Target: T1, Toll-like receptor 7 (Homo sapiens, UniProt Q9NYK1)
T1 sequence (Q9NYK1 whole entry): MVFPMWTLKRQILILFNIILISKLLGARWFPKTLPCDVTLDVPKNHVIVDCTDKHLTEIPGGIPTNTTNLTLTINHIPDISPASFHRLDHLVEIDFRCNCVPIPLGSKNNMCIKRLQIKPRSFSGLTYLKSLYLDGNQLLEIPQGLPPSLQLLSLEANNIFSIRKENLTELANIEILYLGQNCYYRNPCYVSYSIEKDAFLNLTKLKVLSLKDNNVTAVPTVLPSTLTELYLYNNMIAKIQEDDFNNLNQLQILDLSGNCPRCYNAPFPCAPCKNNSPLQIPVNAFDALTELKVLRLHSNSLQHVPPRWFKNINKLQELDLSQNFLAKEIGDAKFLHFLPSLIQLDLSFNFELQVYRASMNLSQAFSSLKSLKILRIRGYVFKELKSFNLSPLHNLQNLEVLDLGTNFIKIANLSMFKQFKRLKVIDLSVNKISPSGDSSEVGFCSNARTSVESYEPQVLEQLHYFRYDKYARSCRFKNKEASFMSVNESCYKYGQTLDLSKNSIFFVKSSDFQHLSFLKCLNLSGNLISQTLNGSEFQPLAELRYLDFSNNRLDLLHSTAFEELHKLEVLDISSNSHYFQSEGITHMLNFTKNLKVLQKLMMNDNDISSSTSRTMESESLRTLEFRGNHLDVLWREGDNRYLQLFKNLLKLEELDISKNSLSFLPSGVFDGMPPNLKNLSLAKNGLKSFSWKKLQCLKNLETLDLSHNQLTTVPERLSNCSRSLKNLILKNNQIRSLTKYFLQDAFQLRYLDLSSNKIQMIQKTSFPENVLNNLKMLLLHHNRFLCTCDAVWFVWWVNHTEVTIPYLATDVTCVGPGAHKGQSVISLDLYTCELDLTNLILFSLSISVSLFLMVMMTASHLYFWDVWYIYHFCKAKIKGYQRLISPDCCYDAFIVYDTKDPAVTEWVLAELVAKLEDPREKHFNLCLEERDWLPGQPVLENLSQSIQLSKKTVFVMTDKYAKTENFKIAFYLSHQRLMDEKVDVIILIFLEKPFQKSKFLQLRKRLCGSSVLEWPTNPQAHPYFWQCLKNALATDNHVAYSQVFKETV
Assay: Agonist activity at TLR7 in HEK-Blue hTLR7 cells expressing NF-kappaB/AP-1 inducible SEAP reporter gene using Quanti-blue as substrate preincubated for 20 hrs followed by substrate addition and measured after 1 hr by spectrophotometric analysis
Assay type: cell-based

- EC50: 10 nM
SMILES: CCOCc1nc2c(N)nc(C)c(Sc3ccc(CN(C)C)c(O)c3)c2[nH]1

Source: ChEMBL document CHEMBL6103603, “Novel Imidazo[4,5-c]pyridine Compounds as TLR7 Agonists for Treating Cancer” (ACS Med Chem Lett, 2025)
